Values of other authors, collected in US11896569B2, “Compositions comprising amino acids for use in the treatment of mucositides in neoplasia patients undergoing radiation therapy and/or chemotherapy” (priority 2015, dated 2024).

How the values were obtained:
[1] = tested on: patients suffering from head and neck cancer
[2] = tested on: mucositis; conditions: 16 grams per day

Compound: NC(=O)CC[C@H](N)C(=O)O [glutamine]
- efficacy for the treatment of mucositis ([1]; between 10 and 26 grams/day): ineffective
- severity of mucositis induced by antitumor treatments ([1]; daily dose of 30 g): significantly decreases the severity of mucositis
- treatment/prevention of mucositis [2]: significant results in the treatment/prevention of mucositis were not observed
